# Laboratory results from PMC12703733, “Probing Guanidino Pendant or Bridged Groups in Cyclic Antimicrobial Peptides Derived from Temporin L: A Strategy to Improve Efficacy against Gram-Negative Bacteria” (Journal of Medicinal Chemistry, 2025).
# Bridge positions count the residues as written; N and C are the ends. Square brackets hold non-standard residues; d marks the D form. Peptide text beside a SMILES is read from it. * marks the point of attachment. Phe(4-guanidino) = N=C(N)Nc1ccc(C[C@H](N)C(=O)O)cc1; Butanoyl(4-guanidino) = N=C(N)NCCCC(=O)*; Propanoyl(3-guanidino) = N=C(N)NCCC(=O)*
# Legend:
# [1] = circular dichroism; conditions: water; pH ns; 25 °C; 150 uM
# [2] = tested on: A. baumannii ATCC 19606; assay: microbe, parasite or virus in culture; assay type: cell-based; conditions: ATCC 19606
# Experimental: (§1) Bacterial strains used in this study were the Gram-positive S. aureus ATCC 25923, S. epidermidis ATCC 12228, B. megaterium BM11, S. [NT] 27591, E. faecalis ATCC 29212 and the Gram-negative E. coli ATCC 25922, P. aeruginosa ATCC 27853, A. baumannii ATCC 19606, E. coli D21 and P. aeruginosa PAO1. […] Bacterial cells in the mid log phase were diluted in Muller Hinton (MH) at a concentration of 2 × 10^6 cell/mL. […] Ciprofloxacin was used as antibiotic control. The plate was then incubated at 37 °C. MICs were obtained from three identical readings of four independent experiments.
# [3] = tested on: B. megaterium BM11; assay: microbe, parasite or virus in culture; assay type: cell-based; conditions: BM11
# Experimental: as §1
# [4] = tested on: E. coli ATCC 25922; assay: microbe, parasite or virus in culture; assay type: cell-based; conditions: ATCC 25922
# Experimental: as §1
# [5] = tested on: E. coli D21; assay: microbe, parasite or virus in culture; assay type: cell-based; conditions: D21
# Experimental: as §1
# [6] = tested on: E. faecalis ATCC 29212; assay: microbe, parasite or virus in culture; assay type: cell-based; conditions: ATCC 29212
# Experimental: as §1
# [7] = tested on: P. aeruginosa ATCC 27853; assay: microbe, parasite or virus in culture; assay type: cell-based; conditions: ATCC 27853
# Experimental: as §1
# [8] = tested on: P. aeruginosa PAO1; assay: microbe, parasite or virus in culture; assay type: cell-based; conditions: PAO1
# Experimental: as §1
# [9] = tested on: S. agalactiae ATCC 27591; assay: microbe, parasite or virus in culture; assay type: cell-based; conditions: ATCC 27591
# Experimental: as §1
# [10] = tested on: S. aureus ATCC 25923; assay: microbe, parasite or virus in culture; assay type: cell-based; conditions: ATCC 25923
# Experimental: as §1
# [11] = tested on: S. epidermidis ATCC 12228; assay: microbe, parasite or virus in culture; assay type: cell-based; conditions: ATCC 12228
# Experimental: as §1
# [12] = assay type: cell-based, human; conditions: human; for viability at 2 h, 3.12 µM / viability at 2 h, 6.25 µM / viability at 2 h, 12.5 µM / viability at 2 h, 25 µM / viability at 2 h, 50 µM / viability at 2 h, 100 µM / viability at 24 h, 3.12 µM / viability at 24 h, 6.25 µM / viability at 24 h, 12.5 µM / viability at 24 h, 25 µM / viability at 24 h, 50 µM / viability at 24 h, 100 µM: Cell viability (%)
# Experimental: For the evaluation of peptides’ cytotoxicity, the human immortalized keratinocytes (HaCaT cells), purchased from AddexBio (San Diego, CA, USA), and BEAS-2B were used. HaCaT cells were cultured in Dulbecco’s modified Eagle’s medium supplemented with 4 mM glutamine (DMEM), 10% heat-inactivated fetal bovine serum (FBS), and 0.1 mg/mL of penicillin and streptomycin, at 37 °C and 5% CO2. BEAS-2B cells were cultured in RPMI, supplemented with 2 mM glutamine (DMEM), 10% heat-inactivated fetal bovine serum (FBS), 1 mM sodium pyruvate, and 0.1 mg/mL of penicillin and streptomycin, at 37 °C and 5% CO2. Cytotoxicity was tested in vitro using a colorimetric assay that relies on the intracellular reduction of the yellow 3-(4,5-dimethylthiazol-2-yl)-2,5-diphenyltetrazolium bromide salt (MTT) by mitochondrial dehydrogenases of metabolically active cells in formazan crystals (purple). About 4 × 10^4 HaCaT and BEAS-2B cells, suspended in DMEM supplemented with 2% FBS, were plated in triplicate wells of a 96-well microtiter plate. The plate was incubated overnight at 37 °C and 5% CO2. Then, the cells were treated with different concentrations of the peptide (from 100 to 3.12 μM) in a fresh serum-free medium for 2 h and for a longer time (24 h). Following peptide treatment, the medium was removed, and MTT (0.5 mg/mL) solution in Hank’s buffer (136 mM NaCl, 4.2 mM Na2HPO4, 4.4 mM KH2PO4, 5.4 mM KCl, 4.1 mM NaHCO3, pH 7.2, supplemented with 20 mM D-glucose) was added to each well of the plate, that was then incubated for 4 h at 37 °C and 5% CO2. The purple formazan crystals were dissolved using acidified 2-propanol and a microplate reader (Infinite M200; Tecan, Salzburg, Austria) was used to measure the absorbance of each well at 570 nm. The percentage of cell viability was calculated compared to the control, which consisted of cells without any peptide treatment (corresponding to 100% viability) and all data represent the mean of three independent experiments ± SEM.
Structure (SMILES),helicity [1] [%],MIC [2] [µM],MIC [3] [µM],MIC [4] [µM],MIC [5] [µM],MIC [6] [µM],MIC [7] [µM],MIC [8] [µM],MIC [9] [µM],MIC [10] [µM],MIC [11] [µM],"viability at 2 h, 3.12 µM [12] [%]","viability at 2 h, 6.25 µM [12] [%]","viability at 2 h, 12.5 µM [12] [%]","viability at 2 h, 25 µM [12] [%]","viability at 2 h, 50 µM [12] [%]","viability at 2 h, 100 µM [12] [%]","viability at 24 h, 3.12 µM [12] [%]","viability at 24 h, 6.25 µM [12] [%]","viability at 24 h, 12.5 µM [12] [%]",also measured
"CC[C@H](C)[C@H](NC(=O)[C@H](CCCNC(=N)N)NC(=O)[C@H]1CCC(=O)NCCCC[C@H](NC(=O)[C@H](Cc2ccccc2)NC(=O)[C@H](Cc2c[nH]c3ccccc23)NC(=O)[C@@H]2CCCN2C(=O)[C@@H](NC(=O)[C@H](Cc2ccccc2)NC(=O)CCNC(=N)N)C(C)C)C(=O)N[C@@H](CCCCN)C(=O)N[C@@H](Cc2ccccc2)C(=O)N[C@H](CC(C)C)C(=O)N1)C(=O)N[C@@H](CC(C)C)C(N)=O [Peptide 4, guanidino-βAla-FVPWF[KKFle]RIL] ({Propanoyl(3-guanidino)}-FVPWFKKF[dL][dE]RIL-NH2; lactam 6-10)",12,3.12,0.78,3.12,6.25,6.25,25,25,1.56,3.12,1.56,100,100,100,47,7,8,98 ± 1,93 ± 2,88 ± 4,"CC50 at 24 h [12]: 19.4 µM; viability at 24 h, 25 µM [12]: 21 ± 3%; viability at 24 h, 50 µM [12]: 0%; viability at 24 h, 100 µM [12]: 0%"
"CC[C@H](C)[C@H](NC(=O)[C@H](CCCNC(=N)N)NC(=O)[C@H]1CCC(=O)NCCCC[C@H](NC(=O)[C@H](Cc2ccccc2)NC(=O)[C@H](Cc2c[nH]c3ccccc23)NC(=O)[C@@H]2CCCN2C(=O)[C@@H](NC(=O)[C@H](Cc2ccccc2)NC(=O)CCCNC(=N)N)C(C)C)C(=O)N[C@@H](CCCCN)C(=O)N[C@@H](Cc2ccccc2)C(=O)N[C@H](CC(C)C)C(=O)N1)C(=O)N[C@@H](CC(C)C)C(N)=O [Peptide 5, guanidino-GABA-FVPWF[KKFle]RIL] ({Butanoyl(4-guanidino)}-FVPWFKKF[dL][dE]RIL-NH2; lactam 6-10)",16,3.12,0.78,6.25,6.25,6.25,50,25,1.56,3.12,3.12,128,126,128,76,18,4,116 ± 7,137 ± 15,147 ± 15,"CC50 at 24 h [12]: 24.6 µM; viability at 24 h, 25 µM [12]: 58 ± 6%; viability at 24 h, 50 µM [12]: 1 ± 1%; viability at 24 h, 100 µM [12]: 1 ± 1%"
"CC[C@H](C)[C@H](NC(=O)[C@H](CCCNC(=N)N)NC(=O)[C@H]1CCC(=O)NCCCC[C@H](NC(=O)[C@H](Cc2ccc(NC(=N)N)cc2)NC(=O)[C@H](Cc2c[nH]c3ccccc23)NC(=O)[C@@H]2CCCN2C(=O)[C@@H](NC(=O)[C@@H](N)Cc2ccccc2)C(C)C)C(=O)N[C@@H](CCCCN)C(=O)N[C@@H](Cc2ccccc2)C(=O)N[C@H](CC(C)C)C(=O)N1)C(=O)N[C@@H](CC(C)C)C(N)=O [Peptide 8, FVPW(p-guanidino)F[KKFle]RIL] (H-FVPW[Phe(4-guanidino)]KKF[dL][dE]RIL-NH2; lactam 6-10)",7,6.25,0.78,12.5,6.25,25,50,25,3.12,25,6.25,111,112,115,110,92,63,101 ± 4,105 ± 6,110 ± 3,"viability at 24 h, 25 µM [12]: 124 ± 1%; viability at 24 h, 100 µM [12]: 58 ± 9%"
"CC[C@H](C)[C@H](NC(=O)[C@H](CCCNC(=N)N)NC(=O)[C@H]1CCC(=O)NCCCC[C@H](NC(=O)[C@H](Cc2ccccc2)NC(=O)[C@H](Cc2c[nH]c3ccccc23)NC(=O)[C@@H]2CCCN2C(=O)[C@@H](NC(=O)[C@@H](N)Cc2ccccc2)C(C)C)C(=O)N[C@@H](CCCCN)C(=O)N[C@@H](Cc2ccc(NC(=N)N)cc2)C(=O)N[C@H](CC(C)C)C(=O)N1)C(=O)N[C@@H](CC(C)C)C(N)=O [Peptide 10, FVPWF[KK(p-guanidino)Fle]RIL] (H-FVPWFKK[Phe(4-guanidino)][dL][dE]RIL-NH2; lactam 6-10)",3,6.25,0.78,6.25,6.25,50,50,25,6.25,100,12.5,105,110,112,112,101,82,98 ± 3,104 ± 2,103 ± 3,"viability at 24 h, 25 µM [12]: 106 ± 3%; viability at 24 h, 50 µM [12]: 116 ± 5%; viability at 24 h, 100 µM [12]: 95 ± 6%"
